What was measured:
Test in all cases: microbe, parasite or virus in culture
[1] = test system: Pseudotyped HCV GT1a particles (HCVpp); assay type: cell-based, HCV GT1a H77 strain; settings: Hepatitis C virus, 72 h, read-out: HCVpp GT-1a (EC50, μM)
[2] = test system: Pseudotyped HCV GT1b particles (HCVpp); assay type: cell-based, HCV GT1b Con1 strain; settings: Hepatitis C virus, 72 h, read-out: HCVpp GT-1b (EC50, μM)
[3] = test system: pseudotyped VSV G particles (VSVpp); assay type: cell-based; settings: Vesicular stomatitis virus, 72 h, read-out: VSVpp (EC50, μM)

| Compound | EC50 [1] | EC50 [2] | EC50 [3] |
| --- | --- | --- | --- |
| N#Cc1c(Cl)cc(Nc2n[nH]c(N)n2)cc1Cl [Compound I-2, 4-(5-Amino-1H-[1,2,4]triazol-3-ylamino)-2,6-dichloro-benzonitrile] | 0.009 µM | 0.277 µM | 64.6 µM |
| Nc1nc(Nc2cccc(S(=O)(=O)C(F)(F)F)c2)n[nH]1 [Compound I-4, N^3-(3-Trifluoromethanesulfonyl-phenyl)-1H-[1,2,4]triazole-3,5-diamine] | 0.412 µM | 0.823 µM | 100 µM |
| CC(C)(C)C#Cc1ccc(Nc2n[nH]c(N)n2)cc1Cl [Compound I-80, N^3-[3-Chloro-4-(3,3-dimethyl-but-1-ynyl)-phenyl]-1H-[1,2,4]triazole-3,5-diamine] | 1.12 µM | 11.2 µM | 91.6 µM |
| Nc1nc(Nc2ccc(Cl)c([N+](=O)[O-])c2)n[nH]1 [Compound I-13, N*3*-(4-Chloro-3-nitro-phenyl)-1H-[1,2,4]triazole-3,5-diamine] | 0.539 µM | 4.85 µM | 100 µM |
| Nc1nc(Nc2ccc([N+](=O)[O-])c(Cl)c2)n[nH]1 [Compound I-8, N*3*-(3-Chloro-4-nitro-phenyl)-1H-[1,2,4]triazole-3,5-diamine] | 0.141 µM | 1.15 µM | 98.1 µM |
| CS(=O)(=O)c1cccc(Nc2n[nH]c(N)n2)c1 [Compound I-21, N*3*-(3-Methanesulfonyl-phenyl)-1H-[1,2,4]triazole-3,5-diamine] | 12.6 µM | 41.4 µM | 100 µM |
| CC(C)(C)C#Cc1c(Cl)cc(Nc2n[nH]c(N)n2)cc1Cl [Compound I-79, N^3-[3,5-Dichloro-4-(3,3-dimethyl-but-1-ynyl)-phenyl]-1H-[1,2,4]triazole-3,5-diamine] | 0.051 µM | 3.31 µM | 66 µM |
| Nc1nc(Nc2cccc(Cl)c2)n[nH]1 [Compound I-36, N*3*-(3-Chloro-phenyl)-1H-[1,2,4]triazole-3,5-diamine] | 1.84 µM | 28.6 µM | 100 µM |
| Nc1nc(Nc2ccc(S(N)(=O)=O)cc2)n[nH]1 [Compound I-25, 4-(5-Amino-1H-[1,2,4]triazol-3-ylamino)-benzenesulfonamide] | 86.4 µM | 100 µM | 100 µM |
| CS(=O)(=O)c1ccc(Nc2n[nH]c(N)n2)cc1 [Compound I-20, N*3*-(4-Methanesulfonyl-phenyl)-1H-[1,2,4]triazole-3,5-diamine] | 90.6 µM | 100 µM | 100 µM |
| Nc1nc(Nc2cccc(S(F)(F)(F)(F)F)c2)n[nH]1 [Compound I-70, N*3*-(3-pentafluorosulfur-phenyl)-1H-[1,2,4]triazole-3,5-diamine] | 0.152 µM | 1.1 µM | 100 µM |
| Nc1nc(Nc2cc(Cl)c(Br)c(C(F)(F)F)c2)n[nH]1 [Compound I-42, N3-(4-bromo-3-chloro-5-(trifluoromethyl)phenyl)-1H-1,2,4-triazole-3,5-diamine] | 0.081 µM | 0.404 µM |  |
| Nc1nc(Nc2cccc(Br)c2)n[nH]1 [Compound I-15, N*3*-(3-Bromo-phenyl)-1H-[1,2,4]triazole-3,5-diamine] | 1.41 µM | 18.1 µM | 100 µM |
| Nc1nc(Nc2cc(Cl)c(F)c(C(F)(F)F)c2)n[nH]1 [Compound I-60, N^3-(3-Chloro-4-fluoro-5-trifluoromethyl-phenyl)-1H-[1,2,4]triazole-3,5-diamine] | 0.071 µM | 0.489 µM | 33.3 µM |
| Nc1nc(Nc2ccc(Cl)c(C(F)(F)F)c2)n[nH]1 [Compound I-51, N^3-(4-Chloro-3-trifluoromethyl-phenyl)-1H-[1,2,4]triazole-3,5-diamine] | 0.475 µM | 3.44 µM | 53.7 µM |
| Nc1nc(Nc2cc(Cl)c(C3CC3)c(Cl)c2)n[nH]1 [Compound I-39] | 0.015 µM | 0.574 µM | 37.9 µM |
| CC(C)(C)c1cc(Nc2n[nH]c(N)n2)ccc1C#N [Compound I-16, 4-(5-Amino-1H-[1,2,4]triazol-3-ylamino)-2-tert-butyl-benzonitrile] | 5.34 µM | 16.1 µM | 100 µM |
| Nc1nc(Nc2cc(F)cc(S(F)(F)(F)(F)F)c2)n[nH]1 [Compound I-73, N*3*-(3-Fluoro-5-pentafluorosulfur-phenyl)-1H-[1,2,4]triazole-3,5-diamine] | 0.035 µM | 0.188 µM | 100 µM |
| CC(C)(C)c1cc(Nc2n[nH]c(N)n2)cc(C(C)(C)C)c1 [Compound I-19, N*3*-(3,5-Di-tert-butyl-phenyl)-1H-[1,2,4]triazole-3,5-diamine] | 44.7 µM | 56.8 µM | 87.8 µM |
| Nc1nc(Nc2ccc(S(=O)(=O)C(F)(F)F)c(Cl)c2)n[nH]1 [Compound I-7, N*3*-(3-Chloro-4-trifluoromethanesulfonyl-phenyl)-1H-[1,2,4]triazole-3,5-diamine] | 1.28 µM | 0.91 µM | 100 µM |

| Compound | EC50 [1] | EC50 [2] | EC50 [3] |
| --- | --- | --- | --- |
| Nc1nc(Nc2cc(Cl)c(Cl)c(Cl)c2)n[nH]1 [Compound I-11, N*3*-(3,4,5-Trichloro-phenyl)-1H-[1,2,4]triazole-3,5-diamine] | 0.166 µM | 4.68 µM | 100 µM |
| N#Cc1c(Cl)cc(Nc2n[nH]c(N)n2)cc1C(F)(F)F [Compound I-43, 4-(5-amino-1H-1,2,4-triazol-3-ylamino)-2-chloro-6-(trifluoromethyl)benzonitrile] | 0.038 µM | 0.146 µM | 30.3 µM |
| Nc1nc(Nc2ccc(OCc3ccccc3)c(Cl)c2)n[nH]1 [Compound I-37, N*3*-(4-Benzyloxy-3-chloro-phenyl)-1H-[1,2,4]triazole-3,5-diamine] | 0.92 µM | 13.4 µM | 33.3 µM |
| Nc1nc(Nc2ccc3ccccc3c2)n[nH]1 [Compound I-18, N*3*-Naphthalen-2-yl-1H-[1,2,4]triazole-3,5-diamine] | 2.95 µM | 27.5 µM | 100 µM |
| Nc1nc(Nc2ccc(C(F)(F)F)c(Cl)c2)n[nH]1 [Compound I-10, N*3*-(3-Chloro-4-trifluoromethyl-phenyl)-1H-[1,2,4]triazole-3,5-diamine] | 0.368 µM | 5.14 µM | 100 µM |
| Nc1nc(Nc2cc(Cl)cc(C(F)(F)F)c2)n[nH]1 [Compound I-50, N^3-(3-Chloro-5-trifluoromethyl-phenyl)-1H-[1,2,4]triazole-3,5-diamine] | 0.094 µM | 1.1 µM | 100 µM |
| Nc1nc(Nc2cc(F)c(Br)c(S(F)(F)(F)(F)F)c2)n[nH]1 [Compound I-83, N*3*-(4-Bromo-3-fluoro-5-pentafluorosulfur-phenyl)-1H-[1,2,4]triazole-3,5-diamine] | 0.076 µM | 0.17 µM | 32.5 µM |
| N#Cc1ccc(Nc2n[nH]c(N)n2)cc1Cl [Compound I-12, 4-(5-Amino-1H-[1,2,4]triazol-3-ylamino)-2-chloro-benzonitrile] | 0.335 µM | 4.19 µM | 100 µM |
| Nc1nc(Nc2cccc(OC(F)(F)F)c2)n[nH]1 [Compound I-52, N^3-(3-Trifluoromethoxy-phenyl)-1H-[1,2,4]triazole-3,5-diamine] | 2.39 µM | 12.6 µM | 100 µM |
| CN(C)S(=O)(=O)c1ccc(Nc2n[nH]c(N)n2)cc1 [Compound I-26, 4-(5-Amino-1H-[1,2,4]triazol-3-ylamino)-N,N-dimethyl-benzenesulfonamide] | 100 µM | 100 µM | 100 µM |
| CS(=O)(=O)c1ccc(Nc2n[nH]c(N)n2)cc1Cl [Compound I-77, N^3-(3-Chloro-4-methanesulfonyl-phenyl)-1H-[1,2,4]triazole-3,5-diamine] | 1.59 µM | 20.4 µM |  |
| Nc1n[nH]c(Nc2cc(F)c(Br)c(C(F)(F)F)c2)n1 [Compound I-45, N^5-(4-bromo-3-fluoro-5-trifluoromethylphenyl)-1H-[1,2,4]-triazole-3,5-diamine] |  | 0.095 µM | 82.5 µM |
| C=Cc1c(Cl)cc(Nc2n[nH]c(N)n2)cc1Cl [Compound I-67, N^3-(3,5-Dichloro-4-vinyl-phenyl)-1H-[1,2,4]triazole-3,5-diamine] |  | 0.685 µM | 100 µM |
| Nc1nc(Nc2ccc(Br)c(Cl)c2)n[nH]1 [Compound I-40, N*3*-(4-Bromo-3-chloro-phenyl)-1H-[1,2,4]triazole-3,5-diamine] |  | 3.29 µM | 45.7 µM |
| Nc1nc(Nc2cc(Cl)cc(Cl)c2)n[nH]1 [Compound I-41, 3-Amino-5-(3,5-Dichloroanilino)-S-triazole] | 0.138 µM | 1.61 µM |  |
| Nc1nc(Nc2cc(Cl)c(C(=O)Nc3ccccc3)c(Cl)c2)n[nH]1 [Compound I-64, 4-(5-Amino-1H-[1,2,4]triazol-3-ylamino)-2,6-dichloro-N-phenyl-benzamide] |  | 4.09 µM | 8.6 µM |
| CNC(=O)Nc1ccc(Nc2n[nH]c(N)n2)cc1Cl [Compound I-62, 1-[4-(5-Amino-1H-[1,2,4]triazol-3-ylamino)-2-chloro-phenyl]-3-methyl-urea] |  | 100 µM | 100 µM |
| N#Cc1c(F)cc(Nc2nc(N)n[nH]2)cc1C(F)(F)F [Compound I-68, 4-(5-Amino-2H-[1,2,4]triazol-3-ylamino)-2-fluoro-6-trifluoromethyl-benzonitrile] |  | 0.161 µM | 43.3 µM |
| N#Cc1c(F)cc(Nc2n[nH]c(N)n2)cc1S(F)(F)(F)(F)F [Compound I-86, 4-(5-Amino-1H-[1,2,4]triazol-3-ylamino)-2-fluoro-6-pentafluorosulfur-benzonitrile] |  | 0.104 µM | > 10 µM |

From patent US20150307461A1, “ANTIVIRAL COMPOUNDS” (priority 2012, published 2015)
